Data reported in ChEMBL document CHEMBL3507680, “University of Dundee, Gates Library screen for HepG2 cell viability”.

Experiment: Human HepG2 cell viability assay in 384 well format
Assay type: toxicity, cell-based
Design: dose 125 nL, time 70.5 hour; concentration not given beside the values
Settings: HepG2 cells, read-out: Inhibition

Which cytotoxicity at 70.5 h does the source give for CC(C)CN1C(=O)CO[C@@H]2CN(C(=O)NC(C)C)C[C@H]21 here?
Its cytotoxicity at 70.5 h is -2.72%.

Which cytotoxicity at 70.5 h does the source give for CN(Cc1ccncc1)C1CCC[C@@H]2CN(c3ncccn3)C[C@H]12 (some centres not stated) here?
The cytotoxicity at 70.5 h was -2.1%.

For Cc1noc(C)c1CN1C[C@@H]2CN(C(=O)c3cscn3)C[C@@H]2C1, which cytotoxicity at 70.5 h is on record?
Its cytotoxicity at 70.5 h is -2.29%.

For Cn1cc(CN2CCO[C@H]3C(Cn4cccn4)CC[C@@H]32)cn1 (some centres not stated), which cytotoxicity at 70.5 h is on record?
Its cytotoxicity at 70.5 h is 2.67%.

Which cytotoxicity at 70.5 h does the source give for Cn1cccc1C(=O)N1CC[C@@H]2[C@@H]1CC(=O)N2CC1CCOCC1 here?
The cytotoxicity at 70.5 h was 0.858%.

Which cytotoxicity at 70.5 h does the source give for COCCNC(=O)C1CN(Cc2ccsc2)Cc2ccnn2C1 (configuration not stated) here?
Its cytotoxicity at 70.5 h is 1.38%.

With CS(=O)(=O)N1CC2(CCN(c3nccs3)CC2)c2ccccc21 as the molecule, how does the cytotoxicity at 70.5 h read?
Its cytotoxicity at 70.5 h is 5.59%.

For CS(=O)(=O)N1CCOC2(CCN(c3ncccn3)CC2)c2ccccc21, which cytotoxicity at 70.5 h is on record?
Its cytotoxicity at 70.5 h is -1.05%.

Which cytotoxicity at 70.5 h does the source give for CCn1nnc2c1C(COCCN(C)C)CN(c1nncs1)C2 (configuration not stated) here?
Its cytotoxicity at 70.5 h is 31.1%.

For CN1CC(c2ccccc2)C2(CCN(C(=O)c3ccc[nH]3)CC2)C1=O (configuration not stated), which cytotoxicity at 70.5 h is on record?
Its cytotoxicity at 70.5 h is 2.63%.

For COCCN1C(=O)CC[C@]12CC[C@@H](NCc1ccc(OC)cc1)CC2, which cytotoxicity at 70.5 h is on record?
The cytotoxicity at 70.5 h was 0.729%.

With O=S(=O)(c1cccnc1)N1C[C@@H]2COC[C@]2(COCC2CC2)C1 as the molecule, how does the cytotoxicity at 70.5 h read?
The cytotoxicity at 70.5 h was -3.67%.

With CS(=O)(=O)N1CCO[C@@H]2CN(Cc3ccc(F)cc3)C[C@@H]2C1 as the molecule, how does the cytotoxicity at 70.5 h read?
Its cytotoxicity at 70.5 h is -6.95%.

For COCc1nn(CC2CC2)c2c1CN(C(=O)c1ccno1)CC2, which cytotoxicity at 70.5 h is on record?
Its cytotoxicity at 70.5 h is -3.21%.

Which cytotoxicity at 70.5 h does the source give for CCOCc1nn(C)c2c1CN(C(=O)c1ccno1)CC2 here?
The cytotoxicity at 70.5 h was -4.99%.

With Cn1cc(CN2CCC3(CCCN(C(=O)c4cnccn4)C3)C2)cn1 (configuration not stated) as the molecule, how does the cytotoxicity at 70.5 h read?
The cytotoxicity at 70.5 h was -5.89%.

With CO[C@H]1CN(C(=O)c2ccc(C)o2)[C@@H]2CCCO[C@H]12 as the molecule, how does the cytotoxicity at 70.5 h read?
Its cytotoxicity at 70.5 h is -0.145%.

Which cytotoxicity at 70.5 h does the source give for CNC(=O)C1Cn2ccnc2C2(CCN(Cc3csc(C)n3)CC2)O1 (configuration not stated) here?
Its cytotoxicity at 70.5 h is -2.63%.

Which cytotoxicity at 70.5 h does the source give for CCn1c(SCC(=O)N2CCCC2)nc2cc(C)[nH]c2c1=O here?
The cytotoxicity at 70.5 h was 36.5%.

For Cc1cc2nc(SCC(=O)N3CCCC3)n(C)c(=O)c2[nH]1, which cytotoxicity at 70.5 h is on record?
Its cytotoxicity at 70.5 h is -3.73%.

For Cc1cc(-n2nnc(C(=O)O)c2-c2ccncc2)ccc1F, which cytotoxicity at 70.5 h is on record?
The cytotoxicity at 70.5 h was -20%.

With CCc1ccc(-n2nnc(C(=O)O)c2-c2ccncc2)cc1 as the molecule, how does the cytotoxicity at 70.5 h read?
Its cytotoxicity at 70.5 h is -4.02%.

Which cytotoxicity at 70.5 h does the source give for CCc1ccc(C(O)CN2CCN(c3cccc(OC)c3)CC2)cc1 (configuration not stated) here?
Its cytotoxicity at 70.5 h is -29.4%.

For O=C(O)c1nnn(-c2cc(F)cc(F)c2)c1-c1ccncc1, which cytotoxicity at 70.5 h is on record?
Its cytotoxicity at 70.5 h is 8.43%.

Which cytotoxicity at 70.5 h does the source give for O=C(O)c1nnn(-c2ccc(C(F)(F)F)cc2)c1-c1ccncc1 here?
Its cytotoxicity at 70.5 h is -26.2%.

With CC(C)OCCCNC(=O)CC1(Cn2cnnn2)CCCCC1 as the molecule, how does the cytotoxicity at 70.5 h read?
The cytotoxicity at 70.5 h was -8.88%.

Which cytotoxicity at 70.5 h does the source give for O=C(Cn1ccc2ccc(F)cc21)NCc1ccc(C(=O)O)cc1 here?
The cytotoxicity at 70.5 h was 18%.

For O=C(COc1coc(CN2CCCCC2)cc1=O)c1ccc(Cl)cc1, which cytotoxicity at 70.5 h is on record?
The cytotoxicity at 70.5 h was -23.2%.

Which cytotoxicity at 70.5 h does the source give for CC(C)CCNc1c(C#N)c2c(c3nncn13)CN(C)CC2 here?
The cytotoxicity at 70.5 h was -3.96%.

For CN1CCc2c(C#N)c(NCc3ccccc3)n3cnnc3c2C1, which cytotoxicity at 70.5 h is on record?
The cytotoxicity at 70.5 h was 17.9%.

Which cytotoxicity at 70.5 h does the source give for CN1CCc2c(C#N)c(NCCN3CCOCC3)n3cnnc3c2C1 here?
Its cytotoxicity at 70.5 h is -3.13%.

For O=C(O)C1CCCN(C(=O)CCn2ccc3c(Br)cccc32)C1 (configuration not stated), which cytotoxicity at 70.5 h is on record?
Its cytotoxicity at 70.5 h is -12.2%.

With O=C(CCn1ccc2ccc(Cl)cc21)NCc1ccc(C(=O)O)cc1 as the molecule, how does the cytotoxicity at 70.5 h read?
Its cytotoxicity at 70.5 h is -0.8%.

Which cytotoxicity at 70.5 h does the source give for Cc1cccc(C(=O)Oc2cc(=O)n3cccc(C)c3n2)c1 here?
Its cytotoxicity at 70.5 h is -5.1%.

For CCOc1ccccc1C(=O)Oc1cc(=O)n2cccc(C)c2n1, which cytotoxicity at 70.5 h is on record?
The cytotoxicity at 70.5 h was -21.9%.

With Cc1cc(=O)n(CC(=O)NC(C)C)c(Nc2ccc(F)c(C)c2)n1 as the molecule, how does the cytotoxicity at 70.5 h read?
The cytotoxicity at 70.5 h was 23.2%.

Which cytotoxicity at 70.5 h does the source give for CCC(C)NC(=O)Cn1c(Nc2cc(C)cc(C)c2)nc(C)cc1=O (configuration not stated) here?
Its cytotoxicity at 70.5 h is 0.214%.

With CC/N=c1\nc(NCC)nc2n1C(O)(Nc1cc(Cl)ccc1Cl)CS2 (configuration not stated) as the molecule, how does the cytotoxicity at 70.5 h read?
Its cytotoxicity at 70.5 h is 17.8%.

Which cytotoxicity at 70.5 h does the source give for Cc1cc(C)cc(Nc2nc(C)cc(=O)n2CC(=O)NC(C)C)c1 here?
Its cytotoxicity at 70.5 h is -5.12%.

Which cytotoxicity at 70.5 h does the source give for COCCNC(=O)Cn1c(-c2cccc(F)c2)nc(C)c(CCO)c1=O here?
The cytotoxicity at 70.5 h was -7.96%.

For O=c1[nH]nc2c(S(=O)(=O)N3CCN(c4ccc(F)cc4)CC3)cccn12, which cytotoxicity at 70.5 h is on record?
The cytotoxicity at 70.5 h was 20.6%.

With N#Cc1cnc2ccccc2c1N1CCC(C(=O)O)CC1 as the molecule, how does the cytotoxicity at 70.5 h read?
The cytotoxicity at 70.5 h was -4.5%.

Which cytotoxicity at 70.5 h does the source give for O=C(O)c1nc(SCc2ccc(F)cc2)ncc1Br here?
The cytotoxicity at 70.5 h was -7.86%.

With c1ccc(-c2nnc3sc(CCN4CCCC4)nn23)cc1 as the molecule, how does the cytotoxicity at 70.5 h read?
The cytotoxicity at 70.5 h was -5.25%.

For CCOC(=O)C1CCN(C(=O)c2cc(F)ccc2-n2cnnn2)CC1, which cytotoxicity at 70.5 h is on record?
Its cytotoxicity at 70.5 h is 3.28%.

Which cytotoxicity at 70.5 h does the source give for NC(=O)C1CCN(C(=O)c2cc(Br)ccc2-n2cnnn2)CC1 here?
Its cytotoxicity at 70.5 h is 27.7%.

With CSc1nc2ncc3c(=O)n(CCN4CCCCC4)ccc3n2n1 as the molecule, how does the cytotoxicity at 70.5 h read?
Its cytotoxicity at 70.5 h is -4.31%.

For COC(=O)C(NC(=O)Nc1ccc(C(C)=O)cc1)C(C)C (configuration not stated), which cytotoxicity at 70.5 h is on record?
The cytotoxicity at 70.5 h was -5.76%.

With COC(=O)Cn1nc(-c2ccccc2F)ccc1=O as the molecule, how does the cytotoxicity at 70.5 h read?
Its cytotoxicity at 70.5 h is 19.4%.

With CC(=O)Cn1nc(-c2ccccc2F)ccc1=O as the molecule, how does the cytotoxicity at 70.5 h read?
Its cytotoxicity at 70.5 h is -3.88%.

With CCN(CC)Cc1nnc2sc(-c3cc(C(C)C)[nH]n3)nn12 as the molecule, how does the cytotoxicity at 70.5 h read?
Its cytotoxicity at 70.5 h is -8.88%.

For CN1CCc2c(C#N)c(NCc3cccnc3)n3cnnc3c2C1, which cytotoxicity at 70.5 h is on record?
Its cytotoxicity at 70.5 h is -27%.

With Cc1ccc(CN2CCOC3(CCN(C(=O)N4CCCC4)CC3)C2)cc1 as the molecule, how does the cytotoxicity at 70.5 h read?
Its cytotoxicity at 70.5 h is -2.45%.

Which cytotoxicity at 70.5 h does the source give for CCn1nnc2c1C(COCCN(C)C)CN(S(C)(=O)=O)C2 (configuration not stated) here?
Its cytotoxicity at 70.5 h is 2.19%.

Which cytotoxicity at 70.5 h does the source give for O=C(NC1CC1)N1CCc2ccc(=O)n(CCN3CCCC3)c2CC1 here?
Its cytotoxicity at 70.5 h is 0.272%.

For N#Cc1ccc(N2CCC3(CC2)CC(OCc2cccnc2)CO3)cc1 (configuration not stated), which cytotoxicity at 70.5 h is on record?
The cytotoxicity at 70.5 h was -1.15%.

Which cytotoxicity at 70.5 h does the source give for CN(C)C(=O)COC1COC2(CCN(c3cnccn3)CC2)C1 (configuration not stated) here?
The cytotoxicity at 70.5 h was 1.25%.

Which cytotoxicity at 70.5 h does the source give for O=C1N(CC2CC2)CCC12CCN(CC1CC1)CC2 here?
Its cytotoxicity at 70.5 h is -6.9%.

For CC(C)CN1CCC2(CCN(CC3CC3)CC2)C1=O, which cytotoxicity at 70.5 h is on record?
Its cytotoxicity at 70.5 h is -8.5%.

For CC(C)CN1CCS(=O)(=O)[C@@H]2CCN(S(=O)(=O)CC(C)C)CC[C@@H]21, which cytotoxicity at 70.5 h is on record?
Its cytotoxicity at 70.5 h is -3.69%.

For COCCN1CCC2(CCN(CC3CC3)CC2)C1=O, which cytotoxicity at 70.5 h is on record?
Its cytotoxicity at 70.5 h is -2.3%.

Which cytotoxicity at 70.5 h does the source give for Cc1nc(CN2CCC3(CCCN(C(=O)c4cnccn4)C3)C2)cs1 (configuration not stated) here?
The cytotoxicity at 70.5 h was -2.34%.

With Cc1noc([C@@H]2C[C@@H]3CCN(CC4CC4)C[C@H]3O2)n1 as the molecule, how does the cytotoxicity at 70.5 h read?
The cytotoxicity at 70.5 h was -4.17%.

For O=C(Cc1ccsc1)N1C[C@@H]2COC[C@]2(COCc2cccnc2)C1, which cytotoxicity at 70.5 h is on record?
Its cytotoxicity at 70.5 h is -0.0283%.

Which cytotoxicity at 70.5 h does the source give for Cc1ccccc1C(=O)N1C[C@@H]2COC[C@]2(COCc2cccnc2)C1 here?
Its cytotoxicity at 70.5 h is 2.96%.

With CCOC(=O)[C@]12CCCN(Cc3nccs3)C[C@H]1CN(S(C)(=O)=O)C2 as the molecule, how does the cytotoxicity at 70.5 h read?
Its cytotoxicity at 70.5 h is -6.29%.

For O=C(CO[C@@H]1CC[C@H]2[C@H]1OCCN2Cc1ccccn1)N1CCCC1, which cytotoxicity at 70.5 h is on record?
Its cytotoxicity at 70.5 h is 13.4%.

For Cn1cnc(S(=O)(=O)N2C[C@H]3CN(Cc4ccccn4)C[C@H]3C2)c1, which cytotoxicity at 70.5 h is on record?
The cytotoxicity at 70.5 h was -1.38%.

Which cytotoxicity at 70.5 h does the source give for CCN1C[C@H]2[C@@H](C1)N(c1ncc(F)cn1)CC[C@H]2OC here?
The cytotoxicity at 70.5 h was 14.2%.

With COc1ccc2c(c1)C1(CCN(Cc3nccs3)CC1)N(C)CC2 as the molecule, how does the cytotoxicity at 70.5 h read?
The cytotoxicity at 70.5 h was 5.77%.

For O=C1NCC[C@]12CN(Cc1ccncc1)C[C@H]2c1ccccc1, which cytotoxicity at 70.5 h is on record?
The cytotoxicity at 70.5 h was -1.85%.

With O=C1NCC[C@]12CN(Cc1cccnc1)C[C@H]2c1ccccc1 as the molecule, how does the cytotoxicity at 70.5 h read?
Its cytotoxicity at 70.5 h is -3.58%.

For CCOC(=O)[C@]12CCCN(Cc3nccs3)C[C@H]1CN(CCOC)C2, which cytotoxicity at 70.5 h is on record?
Its cytotoxicity at 70.5 h is -1.13%.

With CCOC(=O)[C@]12CCCN(Cc3nccs3)C[C@H]1CN(C(C)C)C2 as the molecule, how does the cytotoxicity at 70.5 h read?
Its cytotoxicity at 70.5 h is -3.32%.

For Cc1ccc(CN2CCC3(CC2)CC3CN(C)Cc2cccnc2)o1 (configuration not stated), which cytotoxicity at 70.5 h is on record?
Its cytotoxicity at 70.5 h is -5.02%.

For CN(C)CCN1CCO[C@H]2CN(Cc3ccccn3)C[C@H]21, which cytotoxicity at 70.5 h is on record?
Its cytotoxicity at 70.5 h is -6%.

With O=C(CN(C1=NCCCC1)c1ccccc1)c1ccc2c(c1)OCCO2 as the molecule, how does the cytotoxicity at 70.5 h read?
Its cytotoxicity at 70.5 h is -16.3%.
